Results from patent US12564609B2, “Hematopoietic stem cell engraftment with a combination of agents” (The Board of Trustees of the Leland Stanford Junior …, priority 2020, dated 2026).

What was measured:
[1] = test system: Lin−Sca1+c-Kit+ cells (LSK); test: Annexin V/PI staining of HSPC fractions after AZA in vivo; design: species or system mice; conditions: AZA 1.25, 2.5 and 5 mg/kg/d for 3 days
Experimental: Analysis was performed 24 h after last AZA administration. Gated from LSK. (B) Annexin V+(left) and AnnexinV/PI+(right) cells shown as % from LSK in the three different dose groups as compared to untreated controls. Data were pooled from 2 independent experiments and represent mean±SD (n=4 in the control group and n=7 in the AZA groups). Statistics were calculated Mann-Whitney test (*P<0.05; **P<0.01).
In vivo direct killing by apoptosis was confirmed by flow cytometry using Annexin V/PI to stain the HSPC fractions.

[2] = test system: mouse Lin−Sca1+c-Kit+CD48− cells; test: In vitro HSC culture, cell counting and live/dead viability assay (mouse); type: cell-based
Experimental: A. Schematic of treatment protocol. C57BL/6 mice were injected with three different doses of AZA (1.25, 2.5 and 5 mg/kg/d) for 3 days. 24 h after last AZA injection BM was analyzed for HSC-depletion and Ki67 intracellular protein expression. B. Overlay histogram of Ki67 intracellular protein expression in LT-HSC (gated from live, Lin^−Sca1^+c-Kit^+CD150^+CD48^− cells) in mice treated with AZA 1.25 mg/kg, 2.5 mg/kg and 5 mg/kg/d for 3 consecutive days. C. Mean fluorescence intensity (MFI) of Ki67 intracellular protein expression in LT-HSC, ST-HSC, MPP2, MPP3/4 and myeloid progenitors (MP). Data were pooled from 2 independent experiments and represent mean±SD (n=7). Statistics were calculated Mann-Whitney test (*P<0.05; **P<0.01; ***P<0.001). […] After 48 h % live/dead cells was assessed by using EarlyTox Live/Dead Assay Kit. E. Proliferation curves of FACS-sorted mouse Lin^−Sca1^+c-Kit^+CD48^− in the presence of indicated concentrations of AZA (left) and cell viability as assessed by % of Calcein AM positive cells after 48 h of cell culture (right). […] Statistics were calculated with Mann-Whitney test (*P<0.05; **P<0.01; ***P<0.001). F. Proliferation curves of FACS-sorted human Lin^−CD34^+CD38^− cells in the presence of indicated concentrations of AZA (left) and cell viability as assessed by % of Calcein AM positive cells after 48 h of cell culture (right). […]

SMILES: Nc1ncn([C@@H]2O[C@H](CO)[C@@H](O)[C@H]2O)c(=O)n1 [AZA, 5-Azacytidine]
- apoptosis and apoptotic cell death in the HSPC compartment [1]: dose dependent
- number of cells in culture ([2]; AZA 0.1, 0.5 and 1 μg/ml at baseline and 24 h, 48 h culture with SCF and TPO): reduced the number of cells in a dose dependent manner
- cell viability by Calcein AM ([2]; AZA concentrations 0.1 μg/ml, 48 h): significant decrease in cell viability
